# Reference: patent US20260242390A1, “TOTAL SYNTHESES OF PORTIMINE A AND ANALOGUES THEREOF AS SMALL MOLECULE MODULATORS OF NMD3” (priority 2023, published 2026)
# Assays:
# LN229 = test: Broad cell line profiling, LN229; assay type: cell-based; details: Homo sapiens, LN-229; LN229, Glioblastoma; read-out: PA IC50
# Excerpt: • A panel of human and mouse cancer cell types used to assess the breadth of PA activity, including multiple therapy resistant metastatic mesenchymal tumor cell lines and primary glioblastoma patient-derived metastatic stem/tumor initiating cell populations.
# Jurkat cells = test: Cell cycle analysis, propidium iodide flow cytometry; assay type: cell-based, human; details: for G2M/sub-G1 (mostly apoptotic cells) / S phase entry: Jurkat cells, 10 nM treatment, 24 hr
# Procedure: FIG. 2. […] Cell cycle analysis in Jurkat cells. Jurkat cells were treated with 10 nM of indicated compounds for 24 hours, and propodium iodide was used to identify different stages of cells by flow cytometry.
# FIG. 6. Portimine A inhibits S phase entry in Jurkat cells. Portimine A downregulates NMD3 at protein level but upregulates in mRNA level in cells, as well as some essential apoptosis proteins. […] Protein degradation of p53, Mcl1, Bid, Bim, Noxa can be rescued by MG132 or Epoxomicin. (B) NMD3 mRNA increased after PA treatment, but not ePA control compound. Jurkat cells were treated with indicated compounds for 24 hr; Cells were then fixed and perform Propidium Iodide staining.
# • 1) Portimine A and its functional analogs show stereo-selective acute toxicity in cancer cells (FIG. 1). […] (B) Structure of portimine related analogs: phenyl-portimine A (Ph-PA, 36) and epi-portimine A (ePA, 38). Structure of fully functionalized portimine A-based epimeric probe pair: portimine A-diazirine-alkyne (PA-DA, 35-2) and epi-portimine A-diazirine-alkyne (ePA-DA, 35-1). (C) Cell viability analysis of portimine A and analogs. Jurkat cells were treated with increasing concentrations of portimine A and analogs for 24 hours. All presented data as mean of biological replicated experiments (n=3). […] Jurkat cells were treated with portimine A or analogs for 12 hours at 10 nM. […] Structurally related negative control ePA and PB are non-toxic in all cell types in the current concentrate range. PBMCs (25k per well), Jurkat (10k per well). […] Cell cycle analysis in Jurkat cells (FIG. 2). Jurkat cells were treated with 10 nM of indicated compounds for 24 hours, and propodium iodide was used to identify different stages of cells by flow cytometry. […] (A) PA and Ph-PA show less toxic to healthy PBMCs compared to Jurkat cells. […] (B) Immunoblot of caspase-3 in Jurkat and PBMCs with indicated conditions. […] (A) Pharmacokinetic studies of mouse intraperitoneal (i.p.) and oral (p.o.) administration for portimine (n=3). […] Impact of PA [0.3 or 1 mg/kg intraperitoneally] on MC38 tumor growth in WT mice (n=6). (C) Kaplan-Myer survival curve of WT MC38 tumor-bearing mice (n=6) after treatment with PA as described in (D). Mice were euthanized when tumor area exceeded 2000 mm^3. Statistical analysis was performed using ANOVA analysis followed by multiple comparisons test, * p≤0.05. Treatment condition: Jurkat (60 M per condition); PA-DA/ePA-DA concentration: 0.5 uM, PA or ePA: 5 uM; Incubate with probe with or without competitors (PA, ePA) for 30 min; UV irradiated for 20 min. (0.5 uM PA-DA add a no-UV condition), Standard pulldown & biotin-enrichment and western blot analysis (Elute condition: 2× sample buffer+500 uM biotin, boil for 20 mins); Primary antibody NMD3 (ProteinTech, 1:150), Actin (BioRad, 1:10000). […] Chemical proteomic profiling with PA-DA in Jurkat cells (A, B, C, G) and HCC1806 cells (D, E, F, H) show NMD3 is the primary target candidate of portimine A. Volcano plot in panels A and D show protein competition in cells treated with active photoaffinity probe PA-DA (500 nM) and DMSO or the active competitor portimine A (PA, […]), dotted lines indicate threshold of fold change <4, p-value>0.05. […] (I, J) Confirmation of PA-DA engagement of NMD3 in Jurkat and HCC1806 cells. […] Treatment condition: Jurkat (5M per well). Portimine A concentration: 2 nM-1000 nM; In total treat cell for 12 hours. […] Protein degradation of p53, Mcl1, Bid, Bim, Noxa can be rescued by MG132 or Epoxomicin. […]
# HCC1806 = test: Cell toxicity in HCC1806 cells; assay type: cell-based, human; details: 36-hour treatment
Compound,IC50 (LN229) [nM],"cell cycle arrest in Jurkat cells (Jurkat cells; 10 nM, 24 hours)",G2M/sub-G1 (mostly apoptotic cells) (Jurkat cells),S phase entry (Jurkat cells),cell toxicity in breast (HCC1806) cancer cell line (HCC1806)
"C=CC1=C[C@@H]2[C@@H]3O[C@]4(CC[C@H](O4)C(C)C[C@@H](O)C3=O)CC(O)C3=NCC[C@@]32CC1 (some centres unmarked) [PA, portimine A]",1.1,triggers cell cycle arrest,does not affect,inhibited,–
"C=CC1=C[C@@H]2[C@@H]3O[C@]4(CC[C@H](O4)C(C)C[C@@H](O)C3=O)C[C@@H](O)C3=NCC[C@@]32CC1 (stereo partly drawn) [ePA, epi-portimine A]",–,–,–,–,minimal effects
"C=CC1=C[C@@H]2[C@@H]3OC4(CC[C@H](O4)C(C)C[C@@H](O)C3=O)CC(=O)C3=NCC[C@@]32CC1 (some centres unmarked) [PB, portimine B]",–,–,–,–,minimal effects
"C#CCCC1(CCNC(=O)c2ccc(C3=C[C@@H]4[C@@H]5O[C@]6(CC[C@H](O6)C(C)C[C@@H](O)C5=O)CC(O)C5=NCC[C@@]54CC3)cc2)N=N1 (some centres unmarked) [PA-DA, portimine A-diazirine-alkyne]",–,–,does not affect,inhibited,–
